DBAASP
Converted amounts (≈) assume the structure as drawn. “And” between values parts separate entries of the source, which are not always exact repeats. Equal entries are not always repeated.

What was measured:
Test in all cases: ≥ marks a high value that may be exact or a test limit, other limits are often not marked, values filed in µg/mL are converted to µM
[1] = tested on: Escherichia coli ATCC 11775
Escherichia coli SBS 363 = tested on: Escherichia coli SBS 363
[2] = tested on: Micrococcus luteus ATCC 49732
[3] = tested on: Pseudomonas aeruginosa ATCC 14502
[4] = tested on: Staphylococcus aureus ATCC 12600
[5] = tested on: Staphylococcus aureus ATCC 6538
Leuconostoc lactis = tested on: Leuconostoc lactis
Listeria innocua = tested on: Listeria innocua
Micrococcus luteus = tested on: Micrococcus luteus
Pasteurella multocida = tested on: Pasteurella multocida
Pseudomonas haemolytica = tested on: Pseudomonas haemolytica
[6] = tested on: Staphylococcus aureus ATCC 25923
[7] = tested on: Staphylococcus aureus ATCC 29213
[8] = tested on: Staphylococcus epidermidis
Streptococcus uberis = tested on: Streptococcus uberis
[9] = tested on: Acinetobacter calcoaceticus
Bacillus cereus = tested on: Bacillus cereus
Bacillus pumilus = tested on: Bacillus pumilus
[10] = tested on: Candida albicans ATCC 2002
[11] = tested on: Escherichia coli ATCC 25922
Pseudomonas aeruginosa = tested on: Pseudomonas aeruginosa
Shigella dysenteriae = tested on: Shigella dysenteriae
[12] = tested on: Staphylococcus aureus ATCC 2592
Aspergillus fumigatus = tested on: Aspergillus fumigatus
Bibersteinia trehalosi = tested on: Bibersteinia trehalosi
[13] = tested on: Corynebacterium pseudotuberculosis ATCC 19410
Klebsiella pneumoniae = tested on: Klebsiella pneumoniae
[14] = tested on: Mannheimia haemolytica Serovar 1
[15] = tested on: Mannheimia haemolytica Serovar 2
[16] = tested on: Mannheimia haemolytica Serovar 6
[17] = tested on: Pseudomonas aeruginosa PAO1
[18] = tested on: Salmonella enterica subsp. arizonae
Staphylococcus aureus = tested on: Staphylococcus aureus
[19] = tested on: Bacillus subtilis KCCM 11495
[20] = tested on: Enterococcus faecium CCARM 5028
[21] = tested on: Enterococcus faecium CCARM 5029
[22] = tested on: Escherichia coli KCCM 11569
[23] = tested on: Pseudomonas aeruginosa CCARM 2092
[24] = tested on: Pseudomonas aeruginosa CCARM 2095
[25] = tested on: Staphylococcus aureus CCARM 3572
Bacillus subtilis BR151 = tested on: Bacillus subtilis BR151
[26] = tested on: Enterococcus faecium A634
Escherichia coli JM109 = tested on: Escherichia coli JM109
[27] = tested on: Staphylococcus aureus 1206

## CC[C@H](C)[C@H](NC(=O)[C@H](C)NC(=O)[C@H](CO)NC(=O)[C@@H](NC(=O)[C@H](C)NC(=O)[C@H](CC(N)=O)NC(=O)[C@@H](NC(=O)[C@H](C)NC(=O)[C@H](Cc1cnc[nH]1)NC(=O)[C@@H]1CCCN1C(=O)[C@@H](NC(=O)[C@H](CC(C)C)NC(=O)[C@H](CO)NC(=O)[C@H](CC(C)C)NC(=O)[C@@H](N)Cc1ccccc1)[C@@H](C)CC)[C@@H](C)CC)C(C)C)C(=O)N[C@@H](C)C(=O)N[C@@H](CCCCN)C(=O)N[C@@H](Cc1cnc[nH]1)C(=O)N[C@@H](Cc1ccccc1)C(N)=O [FLSLIPHAINAVSAIAKHF]
[1]
  MIC: 7.2 µM (≈ 14.7 µg/mL)
Escherichia coli SBS 363
  MIC: 6 µM (≈ 12.3 µg/mL)
[2]
  MIC: 1.8 µM (≈ 3.69 µg/mL)
[3]
  MIC: 6 µM (≈ 12.3 µg/mL)
[4]
  MIC: 3.6 µM (≈ 7.37 µg/mL)
[5]
  MIC: 6 µM (≈ 12.3 µg/mL)

## CC[C@H](C)[C@H](NC(=O)[C@@H](NC(=O)[C@@H]1CCCN1C(=O)[C@@H](NC(=O)[C@@H](NC(=O)[C@H](Cc1cnc[nH]1)NC(=O)[C@@H]1CCCN1C(=O)[C@H](CC(C)C)NC(=O)[C@@H](NC(=O)[C@H](Cc1cnc[nH]1)NC(=O)[C@H](CCCCN)NC(=O)[C@H](C)NC(=O)[C@@H](NC(=O)[C@H](C)NC(=O)CNC(=O)[C@H](CC(C)C)NC(=O)[C@@H](NC(=O)[C@H](CO)NC(=O)[C@H](Cc1ccccc1)NC(=O)[C@H](CC(C)C)NC(=O)CN)C(C)C)C(C)C)C(C)C)C(C)C)C(C)C)C(C)C)C(=O)N[C@@H](C)C(=O)N[C@@H](CCC(=O)O)C(=O)N[C@@H](CCCCN)C(=O)N[C@@H](CC(C)C)C(N)=O [GLFSVLGAVAKHVLPHVVPVIAEKL]
Leuconostoc lactis
  MIC: 1.16 µM (≈ 3 µg/mL)
Listeria innocua
  MIC: 19.3 µM (≈ 50 µg/mL)
Micrococcus luteus
  MIC: 9.64 µM (≈ 25 µg/mL)
Pasteurella multocida
  MIC: 9.64 µM (≈ 25 µg/mL)
Pseudomonas haemolytica
  MIC: 19.3 µM (≈ 50 µg/mL)
[6]
  MIC: 2.31 µM (≈ 6 µg/mL)
[7]
  MIC: 4.63 µM (≈ 12 µg/mL)
[8]
  MIC: 4.63 µM (≈ 12 µg/mL)
Streptococcus uberis
  MIC: 9.64 µM (≈ 25 µg/mL)

## CC[C@H](C)[C@H](NC(=O)[C@@H]1CCCN1C(=O)[C@H](Cc1ccccc1)NC(=O)[C@@H](N)Cc1ccccc1)C(=O)N[C@H](C(=O)NCC(=O)N[C@@H](CCCCN)C(=O)N[C@@H](CC(C)C)C(=O)N[C@@H](CC(C)C)C(=O)N[C@@H](CO)C(=O)NCC(=O)N[C@@H](CC(C)C)C(=O)N[C@@H](CC(C)C)C(N)=O)C(C)C [FFPIVGKLLSGLL]
[9]
  MIC: ≥ 42.7 µM
Bacillus cereus
  MIC: ≥ 53.4 µM
Bacillus pumilus
  MIC: 5.34 µM (≈ 7.49 µg/mL)
[10]
  MIC: 3.56 µM (≈ 5 µg/mL)
[11]
  MIC: 5.34 µM (≈ 7.49 µg/mL)
Pseudomonas aeruginosa
  MIC: 3.56 µM (≈ 5 µg/mL)
Shigella dysenteriae
  MIC: 14.2 µM (≈ 20 µg/mL)
[12]
  MIC: 5.34 µM (≈ 7.49 µg/mL)

## CC[C@H](C)[C@H](NC(=O)[C@H](CCCN=C(N)N)NC(=O)[C@H](CCCN=C(N)N)NC(=O)[C@@H](NC(=O)[C@@H](N)CC(N)=O)[C@@H](C)CC)C(=O)N[C@H](C(=O)N[C@@H](CCCN=C(N)N)C(=O)N[C@@H](CCCCN)C(=O)N[C@H](C(=O)N[C@H](C(=O)N[C@@H](Cc1cnc[nH]1)C(=O)N[C@H](C(=O)N[C@H](C(=O)N[C@@H](CCCCN)C(=O)N[C@@H](CCCCN)C(=O)N[C@@H](Cc1ccc(O)cc1)C(=O)O)[C@@H](C)CC)[C@@H](C)CC)[C@@H](C)CC)[C@@H](C)CC)[C@@H](C)CC [NIRRIIRKIIHIIKKY]
Aspergillus fumigatus
  MIC: 4 µM (≈ 8.3 µg/mL)
Bibersteinia trehalosi
  MIC: 3.61 µM (≈ 7.5 µg/mL)
[13]
  MIC: 9.63 µM (≈ 20 µg/mL)
Klebsiella pneumoniae
  MIC: 0.818 µM (≈ 1.7 µg/mL)
[14]
  MIC: 0.722 µM (≈ 1.5 µg/mL)
[15]
  MIC: 1.59 µM (≈ 3.3 µg/mL)
[16]
  MIC: 1.59 µM (≈ 3.3 µg/mL)
Pasteurella multocida
  MIC: 0.626 µM (≈ 1.3 µg/mL)
[17]
  MIC: 2.02 µM (≈ 4.2 µg/mL)
[18]
  MIC: 2.41 µM (≈ 5 µg/mL)
Staphylococcus aureus
  MIC: 4.81 µM (≈ 10 µg/mL)

## CC(C)C[C@H](NC(=O)CNC(=O)[C@H](CCCCN)NC(=O)[C@H](CCCCN)NC(=O)[C@H](CC(C)C)NC(=O)[C@H](CC(C)C)NC(=O)[C@H](C)NC(=O)[C@H](CC(N)=O)NC(=O)[C@H](CC(C)C)NC(=O)[C@H](Cc1c[nH]c2ccccc12)NC(=O)[C@@H](N)CCCCN)C(=O)N[C@@H](CC(N)=O)C(=O)N[C@@H](CS)C(=O)N[C@@H](C)C(=O)N[C@@H](CCCCN)C(=O)NCC(=O)N[C@H](C(=O)N[C@@H](CC(C)C)C(=O)N[C@@H](C)C(N)=O)C(C)C [KWLNALLKKGLNCAKGVLA]
[19]
  MIC: 0.49 µM (≈ 1 µg/mL)
[20]
  MIC: 0.693 µM and 1.39 µM
[21]
  MIC: 0.693 µM and 1.39 µM
[22]
  MIC: 1.39 µM (≈ 2.83 µg/mL)
[23]
  MIC: 1.39 µM (≈ 2.83 µg/mL)
[24]
  MIC: 2.77 µM (≈ 5.65 µg/mL)
[25]
  MIC: 5.54 µM (≈ 11.3 µg/mL)

## CCC(C)[C@H](NC(=O)CN)C(=O)NCC(=O)N[C@@H](CCCCN)C(=O)N[C@@H](Cc1ccccc1)C(=O)N[C@@H](CC(C)C)C(=O)N[C@@H](Cc1cnc[nH]1)C(=O)N[C@@H](C)C(=O)N[C@@H](C)C(=O)N[C@@H](CCCCN)C(=O)N[C@@H](CCCCN)C(=O)N[C@@H](Cc1ccccc1)C(=O)N[C@@H](C)C(=O)N[C@@H](CCCCN)C(=O)N[C@@H](C)C(=O)N[C@@H](Cc1ccccc1)C(=O)N[C@H](C(=O)N[C@@H](C)C(=O)N[C@@H](CCC(=O)O)C(=O)N[C@H](C(=O)N[C@@H](CCSC)C(=O)N[C@@H](CC(N)=O)C(=O)N[C@@H](CO)C(N)=O)C(C)CC)C(C)C (stereo not given in full) [GIGKFLHAAKKFAKAFVAEIMNS]
Bacillus subtilis BR151
  MIC: 1.21 µM (≈ 3 µg/mL)
[26]
  MIC: 20.2 µM (≈ 50 µg/mL)
Escherichia coli JM109
  MIC: 2.42 µM (≈ 6 µg/mL)
[27]
  MIC: 20.2 µM (≈ 50 µg/mL)
